Measurements taken from publication PMC12085588 (Scientific Reports, 2025).
Like-named read-outs stand apart in the source and are kept apart here.

Experiments:
[1] = test system: A549 cells; test: Cytotoxicity assay; format: cell-based, human
[2] = Cytotoxicity assay; format: cell-based, human; conditions: human, A549 cells
[3] = test system: IAV H1N1 strain A/Puerto Rico/8/1934; test: microbe, parasite or virus in culture; format: cell-based, influenza A virus; conditions: for IC50: Influenza A virus, H1N1, A549, 48 h
[4] = test system: IAV H1N1 strain A/Puerto Rico/8/1934; test: microbe, parasite or virus in culture; format: cell-based, influenza A virus
[5] = test system: IAV H1N1 strain A/Puerto Rico/8/1934; format: cell-based, influenza A virus
[6] = test system: IAV H1N1 strain A/Puerto Rico/8/1934; test: microbe, parasite or virus in culture; format: cell-based, influenza A virus; remark: listed apart in the source
[7] = test system: host antiviral genes (IFITM-1, ISG15, ISG20, Mx-A, OAS-1, RSAD2, SHFL) in A549 cells; format: cell-based, human
[8] = test system: IAV H1N1 strain A/Puerto Rico/8/1934; test: microbe, parasite or virus in culture; format: cell-based, influenza A virus; remark: listed apart in the source
[9] = test system: IAV H1N1 strain A/Puerto Rico/8/1934; test: microbe, parasite or virus in culture; format: cell-based, influenza A virus; remark: listed apart in the source
[10] = test system: dengue virus serotype 2 (DENV-2); conditions: cells treated 2 h before viral infection (-2 h); ref 15 (Oo et al.); cited from earlier work
[11] = after 48 h of incubation at concentrations of up to 1000 μM

SMILES	cytotoxicity on A549 cells [1, 11]	CC50 at 3 days [2] [µM]	IC50 [3] [µM]	viral RNA reduction, attachment assay ([4]; 25 μM)	IC50 ([4]; Influenza A virus, H1N1, A549, read-out: IC50 of diosmin, attachment assay) [µM]	percentage of viral RNA copy numbers vs virus control [5]	cytotoxicity on A549 cells ([1]; after 48 h of incubation at concentrations of up to 5000 μM)	viral RNA levels [3]	viral RNA reduction, post-entry assay ([6]; 25 μM)	IC50 ([6]; Influenza A virus, H1N1, A549, read-out: IC50 of diosmin, post-entry assay) [µM]	fold change of ISG15 expression (relative quantification) [7]	fold change of Mx-A expression (relative quantification) [7]	fold change of OAS-1 expression (relative quantification) [7]	fold change of SHFL expression (relative quantification) [7]	reduction of viral RNA, entry assay ([8]; 25 μM)	IC50 ([8]; Influenza A virus, H1N1, A549, read-out: IC50 of diosmin, entry assay) [µM]	viral RNA reduction, virucidal assay ([9]; 25 μM)	IC50 ([9]; Influenza A virus, H1N1, A549, read-out: IC50 of diosmin, virucidal assay) [µM]	suppression of DENV-2 RNA [10]
O=c1c(O)c(-c2ccc(O)c(O)c2)oc2cc(O)ccc12 [Fisetin]	no significant cytotoxicity	1190 ± 3.52	143 ± 6.19																
O=c1cc(-c2ccc(O)c(O)c2)oc2c([C@@H]3O[C@H](CO)[C@@H](O)[C@H](O)[C@H]3O)c(O)cc(O)c12 [Orientin]	no significant cytotoxicity	1043 ± 3.41	8.98 ± 2.03																
COc1ccc(-c2cc(=O)c3c(O)cc(O[C@@H]4O[C@H](CO[C@@H]5O[C@@H](C)[C@H](O)[C@@H](O)[C@H]5O)[C@@H](O)[C@H](O)[C@H]4O)cc3o2)cc1O [Diosmin, diosmetin 7-O-rutinoside]		11300	2.91 ± 3.22	exceeding 40%	13.3 ± 2.37	significant reduction	no significant cytotoxicity	less than 20%	exceeding 40%	12.2 ± 1.55	6.774	2.163	2.035	4.148	under 40%	39.2 ± 0.63	exceeding 40%	41.3 ± 4.56	over 50%
